In the NIST ThermoML archive (doi:10.1016/j.jct.2019.06.009):
± gives the expanded uncertainty stated by the source.

Legend:
[1] = Molar enthalpy of transition or fusion; settings: Crystal; DSC
[2] = Crystal; DSC

Molar enthalpy of transition or fusion [1]: 2.53 ± 0.239 kcal/mol | Triple point temperature [2]: 400.19 ± 2.1 K
Compound: C=NCC#N [methyleneaminoacetonitrile]
